Earlier results in publication PMC2831464 (Clinical cancer research : an official journal of the …, 2010).

Settings: cited from earlier work

Structure (SMILES) | half-life [h] | share in the lactone form in plasma | lactone AUC ratio
CC[C@@]1(O)C(=O)OCc2c1cc1n(c2=O)Cc2c-1nc1ccccc1c2/C=N/OC(C)(C)C [gimatecan] | 77 | 90–98% | –
CC[C@@]1(O)C(=O)OCc2c1cc1n(c2=O)Cc2cc3c(CN(C)C)c(O)ccc3nc2-1 [topotecan] | – | – | 30~76%
CCc1c2c(nc3ccc(O)cc13)-c1cc3c(c(=O)n1C2)COC(=O)[C@]3(O)CC [SN-38] | – | – | 30~76%
CC[C@@]1(O)C(=O)OCc2c1cc1n(c2=O)Cc2c-1nc1ccccc1c2CC[Si](C)(C)C [karenitecin] | 15 | 90–95% | –
